# Measured values taken from US20080064027A1, “TEL/Etv6-mediated inhibition of cell proliferation” (priority 2002, published 2008).
# Values joined by “and” are separate entries in the source; they are usually repeats but may differ in a detail not shown here. Identical values can stand only once. Like-named read-outs stand apart in the source and are kept apart here.
# Test system: Stat3-ER expressing A375 cells
# Format: cell-based
# Procedure: In order to understand Stat3's ability to affect cell proliferation and cell death, we have examined the profile of genes expressed upon Stat3 activation in A375 cells using oligonucleotide microarrays.
# Briefly, microarray analysis was performed using HG U95A GeneChips™ (Affymetrix, Santa Clara, USA) essentially according to the manufacturer's instructions. […] RNA from three independent experiments was pooled and biotin-labeled cRNA probes were generated from each sample starting from 10 μg of total cellular RNA. The resulting biotinylated cRNAs were hybridized to the Affymetrix U95A oligonucleotide array containing more than 12,000 sequences and signals detected. Chip analysis was performed using the Affymetrix Microarray Suite v5 (target intensity 500 used for chip scaling) and GeneSpring 4.2.1 (Silicon Genetics). Changes in gene expression were assessed by looking for concordant changes between replicates using a signed Wilcoxon rank test (as recommended by Affymetrix).
substance,measurement,setting,value
oncostatin M [OSM],expression change (fold): H. sapiens mRNA; cDNA DZFZp586N012,,1.5 and 1.6
same,expression change (fold): Absent in melanoma 2,Avge of clones,2.9
same,expression change (fold): Alpha-1-antichymotrypsin precursor,Avge of clones,2.8
same,expression change (fold): Aquaporin 3,Avge of clones,4.1
same,expression change (fold): Brain-derived neurotrophic factor,Avge of clones,4.8
same,"expression change (fold): CCAAT/enhancer binding protein (C/EBP), delta",Avge of clones,2.7
same,expression change (fold): Cathepsin L,Avge of clones,2.8
same,expression change (fold): Cytokine receptor-like factor 1,Avge of clones,1.9
same,expression change (fold): Death-associated protein kinase 1,Avge of clones,5.2
same,expression change (fold): Ephrin A1 precursor,Avge of clones,2.1
same,expression change (fold): Ets variant gene 6,Avge of clones,3.9
same,expression change (fold): Fibronectin,Avge of clones,2.0
same,"expression change (fold): Fibronectin 1, isoform 1 preproprotein",Avge of clones,1.6
same,"expression change (fold): Glycine dehydrogenase (decarboxylating, glycine decdarboxylase, glycine cleavage system protein P)",Avge of clones,2.5
same,expression change (fold): I factor (complement),Avge of clones,2.3
same,expression change (fold): Insulin-like growth factor binding protein 3,Avge of clones,2.4
same,expression change (fold): Intercellular adhesion molecule 1 precursor,Avge of clones,1.9
same,expression change (fold): Interferon induced transmembrane protein 1 (9-27),Avge of clones,1.4
same,expression change (fold): Interleukin 8,Avge of clones,0.5
same,expression change (fold): Jun B proto-oncogene,Avge of clones,2.5
same,expression change (fold): KIAA0161 gene product,Avge of clones,1.6
same,expression change (fold): KIAA0303 protein,Avge of clones,3.5
same,expression change (fold): KIAA0500 protein,Avge of clones,3.0
same,"expression change (fold): Killer cell lectin-like receptor subfamily C, member 2",Avge of clones,2.7
same,"expression change (fold): Killer cell lectin-like receptor subfamily C, member 3 isoform NKG2-E",Avge of clones,3.6
same,expression change (fold): Kynureninase (L-kynurenine hydrolase),Avge of clones,2.2
same,expression change (fold): MHC class II transactivator,Avge of clones,3.0
same,"expression change (fold): MHC, class II, DQ alpha 1 precursor",Avge of clones,2.4
same,"expression change (fold): MHC, class II, DQ beta 1",Avge of clones,2.5
same,expression change (fold): Major vault protein,Avge of clones,2.7
same,expression change (fold): Nicotinamide N-methyltransferase,Avge of clones,2.4
same,"expression change (fold): Niemann-Pick disease, type C1",Avge of clones,2.1
same,expression change (fold): Oncostatin M receptor,Avge of clones,2.0
same,expression change (fold): Osteoprotegrin,Avge of clones,2.9
same,expression change (fold): Prostatic acid phosphatase precursor,Avge of clones,7.4
same,expression change (fold): Ras-induced senescence 1,Avge of clones,1.8
same,"expression change (fold): Regenerating islet-derived 1 alpha (pancreatic stone protein, pancreatic thread protein)",Avge of clones,3.0
same,expression change (fold): Regulator of G protein signalling 16,Avge of clones,2.9
same,expression change (fold): STAT induced STAT inhibitor 3,Avge of clones,10.7
same,"expression change (fold): Secreted phosphoprotein 1 (osteopontin, bone sialoprotein 1, early T-lymphocyte activation 1)",Avge of clones,7.5
same,"expression change (fold): Serine (or cysteine) protease inhibitor, clade B (ovalbumin), member 3",Avge of clones,27.8
same,expression change (fold): Small inducible cytokine A2 (monocyte chemotactic protein 1),Avge of clones,1.2
same,"expression change (fold): Solute carrier family 2 (facilitated glucose transporter), member 3",Avge of clones,2.3
same,expression change (fold): Stanniocalcin 1,Avge of clones,3.7
same,expression change (fold): Tyrosine phosphatase/TIGR = HG620-HT620,Avge of clones,1.2
same,expression change (fold): v-fos FBJ murine osteosarcoma viral gene homologue,Avge of clones,3.7
same,expression change (fold): v-jun avian sarcoma virus 17 oncogene homologue,Avge of clones,1.2
same,expression change (fold): v-maf musculoaponeurotic fibrosarcoma oncogene homologue (avian),Avge of clones,3.0
same,expression change (fold): Aquaporin 3,"Avge of clones, 2nd listing",8.0
same,"expression change (fold): Fibronectin 1, isoform 1 preproprotein","Avge of clones, 2nd listing",1.5
same,expression change (fold): Insulin-like growth factor binding protein 3,"Avge of clones, 2nd listing",2.0
same,expression change (fold): Interleukin 8,"Avge of clones, 2nd listing",0.9
same,expression change (fold): Kynureninase (L-kynurenine hydrolase),"Avge of clones, 2nd listing",1.5
same,expression change (fold): Oncostatin M receptor,"Avge of clones, 2nd listing",1.9
same,expression change (fold): Prostatic acid phosphatase precursor,"Avge of clones, 2nd listing",1.3
same,"expression change (fold): Secreted phosphoprotein 1 (osteopontin, bone sialoprotein 1, early T-lymphocyte activation 1)","Avge of clones, 2nd listing",4.6
same,expression change (fold): v-jun avian sarcoma virus 17 oncogene homologue,"Avge of clones, 2nd listing",1.5
same,expression change (fold): Kynureninase (L-kynurenine hydrolase),"Avge of clones, 3rd listing",1.7
same,expression change (fold): Absent in melanoma 2,Clone1,2.7
same,expression change (fold): Alpha-1-antichymotrypsin precursor,Clone1,3.1
same,expression change (fold): Aquaporin 3,Clone1,4.5
same,expression change (fold): Brain-derived neurotrophic factor,Clone1,4.8
same,"expression change (fold): CCAAT/enhancer binding protein (C/EBP), delta",Clone1,3.9
same,expression change (fold): Cathepsin L,Clone1,2.3
same,expression change (fold): Cytokine receptor-like factor 1,Clone1,3.0
same,expression change (fold): Death-associated protein kinase 1,Clone1,3.5
same,expression change (fold): Ephrin A1 precursor,Clone1,1.3
same,expression change (fold): Ets variant gene 6,Clone1,3.9
same,expression change (fold): Fibronectin,Clone1,0.9
same,"expression change (fold): Fibronectin 1, isoform 1 preproprotein",Clone1,1.2
same,"expression change (fold): Glycine dehydrogenase (decarboxylating, glycine decdarboxylase, glycine cleavage system protein P)",Clone1,2.5
same,expression change (fold): I factor (complement),Clone1,2.5
same,expression change (fold): Insulin-like growth factor binding protein 3,Clone1,2.6
same,expression change (fold): Intercellular adhesion molecule 1 precursor,Clone1,1.7
same,expression change (fold): Interferon induced transmembrane protein 1 (9-27),Clone1,2.2
same,expression change (fold): Interleukin 8,Clone1,0.4
same,expression change (fold): Jun B proto-oncogene,Clone1,2.7
same,expression change (fold): KIAA0161 gene product,Clone1,1.5
same,expression change (fold): KIAA0303 protein,Clone1,4.5
same,expression change (fold): KIAA0500 protein,Clone1,2.3
same,"expression change (fold): Killer cell lectin-like receptor subfamily C, member 2",Clone1,4.3
same,"expression change (fold): Killer cell lectin-like receptor subfamily C, member 3 isoform NKG2-E",Clone1,6.7
same,expression change (fold): Kynureninase (L-kynurenine hydrolase),Clone1,2.6
same,expression change (fold): MHC class II transactivator,Clone1,3.4
same,"expression change (fold): MHC, class II, DQ alpha 1 precursor",Clone1,2.5
same,"expression change (fold): MHC, class II, DQ beta 1",Clone1,2.4
same,expression change (fold): Major vault protein,Clone1,2.9
same,expression change (fold): Nicotinamide N-methyltransferase,Clone1,2.8
same,"expression change (fold): Niemann-Pick disease, type C1",Clone1,1.7
same,expression change (fold): Oncostatin M receptor,Clone1,1.9
same,expression change (fold): Osteoprotegrin,Clone1,5.2
same,expression change (fold): Prostatic acid phosphatase precursor,Clone1,4.5
same,expression change (fold): Ras-induced senescence 1,Clone1,1.8
same,"expression change (fold): Regenerating islet-derived 1 alpha (pancreatic stone protein, pancreatic thread protein)",Clone1,3.0
same,expression change (fold): Regulator of G protein signalling 16,Clone1,3.7
same,expression change (fold): STAT induced STAT inhibitor 3,Clone1,11.6
same,"expression change (fold): Secreted phosphoprotein 1 (osteopontin, bone sialoprotein 1, early T-lymphocyte activation 1)",Clone1,3.8
same,"expression change (fold): Serine (or cysteine) protease inhibitor, clade B (ovalbumin), member 3",Clone1,28.8
same,expression change (fold): Small inducible cytokine A2 (monocyte chemotactic protein 1),Clone1,0.9
same,"expression change (fold): Solute carrier family 2 (facilitated glucose transporter), member 3",Clone1,1.9
same,expression change (fold): Stanniocalcin 1,Clone1,2.8
same,expression change (fold): Tyrosine phosphatase/TIGR = HG620-HT620,Clone1,0.9
same,expression change (fold): v-fos FBJ murine osteosarcoma viral gene homologue,Clone1,2.9
same,expression change (fold): v-jun avian sarcoma virus 17 oncogene homologue,Clone1,1.4
same,expression change (fold): v-maf musculoaponeurotic fibrosarcoma oncogene homologue (avian),Clone1,2.5
same,expression change (fold): Aquaporin 3,"Clone1, 2nd listing",9.2
same,"expression change (fold): Fibronectin 1, isoform 1 preproprotein","Clone1, 2nd listing",0.6
same,expression change (fold): Insulin-like growth factor binding protein 3,"Clone1, 2nd listing",2.4
same,expression change (fold): Interleukin 8,"Clone1, 2nd listing",1.2
same,expression change (fold): Kynureninase (L-kynurenine hydrolase),"Clone1, 2nd listing",1.8
same,expression change (fold): Oncostatin M receptor,"Clone1, 2nd listing",1.9
same,expression change (fold): Prostatic acid phosphatase precursor,"Clone1, 2nd listing",1.0
same,"expression change (fold): Secreted phosphoprotein 1 (osteopontin, bone sialoprotein 1, early T-lymphocyte activation 1)","Clone1, 2nd listing",3.5
same,expression change (fold): v-jun avian sarcoma virus 17 oncogene homologue,"Clone1, 2nd listing",1.8
same,expression change (fold): Kynureninase (L-kynurenine hydrolase),"Clone1, 3rd listing",1.9
same,expression change (fold): Absent in melanoma 2,Clone2,3.1
same,expression change (fold): Alpha-1-antichymotrypsin precursor,Clone2,2.4
same,expression change (fold): Aquaporin 3,Clone2,3.8
same,expression change (fold): Brain-derived neurotrophic factor,Clone2,4.7
same,"expression change (fold): CCAAT/enhancer binding protein (C/EBP), delta",Clone2,1.6
same,expression change (fold): Cathepsin L,Clone2,3.4
same,expression change (fold): Cytokine receptor-like factor 1,Clone2,0.9
same,expression change (fold): Death-associated protein kinase 1,Clone2,6.9
same,expression change (fold): Ephrin A1 precursor,Clone2,2.9
same,expression change (fold): Ets variant gene 6,Clone2,4.0
same,expression change (fold): Fibronectin,Clone2,3.1
same,"expression change (fold): Fibronectin 1, isoform 1 preproprotein",Clone2,1.9
same,"expression change (fold): Glycine dehydrogenase (decarboxylating, glycine decdarboxylase, glycine cleavage system protein P)",Clone2,2.5
same,expression change (fold): I factor (complement),Clone2,2.2
same,expression change (fold): Insulin-like growth factor binding protein 3,Clone2,2.1
same,expression change (fold): Intercellular adhesion molecule 1 precursor,Clone2,2.1
same,expression change (fold): Interferon induced transmembrane protein 1 (9-27),Clone2,0.6
same,expression change (fold): Interleukin 8,Clone2,0.6
same,expression change (fold): Jun B proto-oncogene,Clone2,2.2
same,expression change (fold): KIAA0161 gene product,Clone2,1.7
same,expression change (fold): KIAA0303 protein,Clone2,2.4
same,expression change (fold): KIAA0500 protein,Clone2,3.8
same,"expression change (fold): Killer cell lectin-like receptor subfamily C, member 2",Clone2,1.0
same,"expression change (fold): Killer cell lectin-like receptor subfamily C, member 3 isoform NKG2-E",Clone2,0.4
same,expression change (fold): Kynureninase (L-kynurenine hydrolase),Clone2,1.7
same,expression change (fold): MHC class II transactivator,Clone2,2.6
same,"expression change (fold): MHC, class II, DQ alpha 1 precursor",Clone2,2.3
same,"expression change (fold): MHC, class II, DQ beta 1",Clone2,2.6
same,expression change (fold): Major vault protein,Clone2,2.5
same,expression change (fold): Nicotinamide N-methyltransferase,Clone2,1.9
same,"expression change (fold): Niemann-Pick disease, type C1",Clone2,2.4
same,expression change (fold): Oncostatin M receptor,Clone2,2.1
same,expression change (fold): Osteoprotegrin,Clone2,0.7
same,expression change (fold): Prostatic acid phosphatase precursor,Clone2,10.2
same,expression change (fold): Ras-induced senescence 1,Clone2,1.9
same,"expression change (fold): Regenerating islet-derived 1 alpha (pancreatic stone protein, pancreatic thread protein)",Clone2,3.0
same,expression change (fold): Regulator of G protein signalling 16,Clone2,2.1
same,expression change (fold): STAT induced STAT inhibitor 3,Clone2,9.7
same,"expression change (fold): Secreted phosphoprotein 1 (osteopontin, bone sialoprotein 1, early T-lymphocyte activation 1)",Clone2,11.3
same,"expression change (fold): Serine (or cysteine) protease inhibitor, clade B (ovalbumin), member 3",Clone2,26.7
same,expression change (fold): Small inducible cytokine A2 (monocyte chemotactic protein 1),Clone2,1.5
same,"expression change (fold): Solute carrier family 2 (facilitated glucose transporter), member 3",Clone2,2.6
same,expression change (fold): Stanniocalcin 1,Clone2,4.6
same,expression change (fold): Tyrosine phosphatase/TIGR = HG620-HT620,Clone2,1.6
same,expression change (fold): v-fos FBJ murine osteosarcoma viral gene homologue,Clone2,4.6
same,expression change (fold): v-jun avian sarcoma virus 17 oncogene homologue,Clone2,1.0
same,expression change (fold): v-maf musculoaponeurotic fibrosarcoma oncogene homologue (avian),Clone2,3.5
same,expression change (fold): Aquaporin 3,"Clone2, 2nd listing",6.7
same,"expression change (fold): Fibronectin 1, isoform 1 preproprotein","Clone2, 2nd listing",2.3
same,expression change (fold): Insulin-like growth factor binding protein 3,"Clone2, 2nd listing",1.7
same,expression change (fold): Interleukin 8,"Clone2, 2nd listing",0.7
same,expression change (fold): Kynureninase (L-kynurenine hydrolase),"Clone2, 2nd listing",1.3
same,expression change (fold): Oncostatin M receptor,"Clone2, 2nd listing",2.0
same,expression change (fold): Prostatic acid phosphatase precursor,"Clone2, 2nd listing",1.7
same,"expression change (fold): Secreted phosphoprotein 1 (osteopontin, bone sialoprotein 1, early T-lymphocyte activation 1)","Clone2, 2nd listing",5.7
same,expression change (fold): v-jun avian sarcoma virus 17 oncogene homologue,"Clone2, 2nd listing",1.1
same,expression change (fold): Kynureninase (L-kynurenine hydrolase),"Clone2, 3rd listing",1.4
